Experimental data: patent US6534502B2, “Substituted oximes and hydrazones as neurokinin antagonists” (Schering Corporation, priority 1998, dated 2003)

What was measured:
[1] = target: NK1 receptor (Homo sapiens, UniProt P25103); test: neurokinin receptor binding assay, NK1
Description: (§1) The in vitro and in vivo activity of the compounds of formula I can be determined by various procedures known in the art, such as a test for their ability to inhibit the activity of the NK1 agonist Substance P, an isolated hamster trachea NK2 assay, a test of the effect of NK1 antagonists on Substance P-induced airway microvascular leakage, measurement of NK2 activity in vivo in guinea pigs, measurement of bronchoconstriction due to NKA, and neurokinin receptor binding assay(s). NK3 activity is determined by following a procedure similar to that described in the literature, e.g., Molecular Pharmacol., 48 (1995), p. 711-716.
(§2) % Inhibition of neurokinin agonist activity is the difference between the percent of maximum specific binding (MSB) and 100%. The percent of MSB is defined by the following equation, wherein “dpm” is disintegrations per minute: [formula]

[2] = target: T1, NK2 receptor (Homo sapiens, UniProt P21452); test: neurokinin receptor binding assay, NK2
T1 sequence (P21452 1-398): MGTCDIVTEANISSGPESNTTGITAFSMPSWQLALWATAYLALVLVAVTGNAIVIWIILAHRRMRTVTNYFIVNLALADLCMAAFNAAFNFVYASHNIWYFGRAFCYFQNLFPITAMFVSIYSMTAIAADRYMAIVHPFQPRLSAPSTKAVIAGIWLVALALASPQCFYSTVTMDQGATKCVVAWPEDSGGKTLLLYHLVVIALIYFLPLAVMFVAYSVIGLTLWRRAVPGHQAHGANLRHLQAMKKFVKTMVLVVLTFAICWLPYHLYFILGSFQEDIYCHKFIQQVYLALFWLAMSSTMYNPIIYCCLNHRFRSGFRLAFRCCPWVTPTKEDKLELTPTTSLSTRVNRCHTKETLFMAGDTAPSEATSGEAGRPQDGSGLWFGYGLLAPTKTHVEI
Description: as §1, with “assay(s).” for “assay(s). NK3 activity is determined by following a procedure similar to that described in the literature, e.g., Molecular Pharmacol., 48 (1995), p. 711-716.”
as §2

[3] = target: T2, NK3 receptor (Homo sapiens, UniProt P29371); test: neurokinin receptor binding assay, NK3
T2 sequence (P29371 1-465): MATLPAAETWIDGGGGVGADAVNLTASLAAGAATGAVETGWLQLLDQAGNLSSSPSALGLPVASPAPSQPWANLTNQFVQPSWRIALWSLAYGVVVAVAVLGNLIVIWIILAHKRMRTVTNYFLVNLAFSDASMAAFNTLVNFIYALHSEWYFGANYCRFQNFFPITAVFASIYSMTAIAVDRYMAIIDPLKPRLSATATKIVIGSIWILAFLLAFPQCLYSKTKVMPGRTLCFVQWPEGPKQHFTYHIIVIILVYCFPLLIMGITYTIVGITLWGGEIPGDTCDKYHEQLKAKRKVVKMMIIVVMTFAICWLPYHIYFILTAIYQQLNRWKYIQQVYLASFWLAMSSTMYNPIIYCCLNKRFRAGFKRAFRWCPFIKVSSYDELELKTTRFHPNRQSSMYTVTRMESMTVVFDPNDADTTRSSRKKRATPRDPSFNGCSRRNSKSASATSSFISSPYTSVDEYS
Description: as §1, §2

NK1 receptor, sequence (P25103 whole entry, species assumed): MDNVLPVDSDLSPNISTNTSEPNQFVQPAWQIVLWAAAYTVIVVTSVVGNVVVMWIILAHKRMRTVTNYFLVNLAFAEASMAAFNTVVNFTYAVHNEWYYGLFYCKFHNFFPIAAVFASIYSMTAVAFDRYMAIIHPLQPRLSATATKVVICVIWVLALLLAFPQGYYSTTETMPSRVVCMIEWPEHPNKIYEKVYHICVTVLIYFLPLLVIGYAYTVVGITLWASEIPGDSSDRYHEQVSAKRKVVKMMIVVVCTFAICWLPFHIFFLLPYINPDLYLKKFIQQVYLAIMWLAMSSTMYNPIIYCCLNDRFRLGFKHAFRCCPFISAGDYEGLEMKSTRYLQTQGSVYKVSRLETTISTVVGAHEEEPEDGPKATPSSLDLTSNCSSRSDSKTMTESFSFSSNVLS

Row | SMILES | Ki [1] [nM] | Ki [2] [nM] | Ki [3] [nM]
1 | CON=C(CN(C)C(=O)c1cc(Cl)cc(Cl)c1)C(CCN1CCC(N2C(=O)c3ccccc3C2C)CC1)c1ccc(Cl)c(Cl)c1 (stereo not shown) [Example 5B] | 0.9 | 2.8 | –
2 | CO/N=C(\CN(C)C(=O)c1cc(Cl)cc(Cl)c1)[C@H](CCN1CCC(N2CCCN(Cc3ccc[n+]([O-])c3)C2=O)CC1)c1ccc(Cl)c(Cl)c1 [Example 6Y] | 0.4 | 0.4 | 0.4
3 | CO/N=C(\CN(C)C(=O)c1ccc2c(c1)OCO2)[C@H](CCN1CCC(N2CCCNC2=O)CC1)c1ccc(Cl)c(Cl)c1 [Example 7F] | 1.8 | 0.4 | 3.8
4 | CO/N=C(\CN(C)C(=O)c1cc(Cl)cc(Cl)c1)C(CCN1CCC(N2CCNCC2=O)CC1)c1ccc(Cl)c(Cl)c1 (stereo not shown) [Example 8A] | 1.1 | 0.7 | 1.2
5 | CO/N=C(\CN(C)C(=O)c1cc(Cl)cc(Cl)c1)C(CCN1CCC(N2CC(=O)N[C@@H](CC(=O)O)C2=O)CC1)c1ccc(Cl)c(Cl)c1 (stereo partly shown) [Example 10B] | 2.9 | 28.9 | 34.6
6 | CO/N=C(\CN(C)C(=O)c1cc(Cl)cc(Cl)c1)[C@H](CCN1CCC(N2CC(=O)N[C@H](CC(N)=O)C2=O)CC1)c1ccc(Cl)c(Cl)c1 [Example 11A] | 0.8 | 1 | 1.9
7 | CO/N=C(\CN(C)C(=O)c1cc(Cl)cc(Cl)c1)[C@H](CCN1CCC(n2c(=O)[nH]c3ccccc32)CC1)c1ccc(Cl)c(Cl)c1 [Example 18A] | – | – | 9.8

Continued, values first:

Row | Ki [1] [nM] | Ki [2] [nM] | Ki [3] [nM] | SMILES
8 | 1 | 1 | 1.5 | CO/N=C(\CN(C)C(=O)c1cc(Cl)cc(Cl)c1)[C@H](CCN1CCC(N2CCCN(CC(=O)N3CCOCC3)C2=O)CC1)c1ccc(Cl)c(Cl)c1 [Example 6E]
9 | 0.9 | 0.5 | 0.3 | CON=C(CN(C)C(=O)c1cc(Cl)cc(Cl)c1)C(CCN1CCC(N2CCCN(C(C)(C)C(=O)O)C2=O)CC1)c1ccc(Cl)c(Cl)c1 (stereo not shown) [Example 6M]
10 | – | – | 2.1 | CO/N=C(\CN(C)C(=O)c1cc(Cl)cc(Cl)c1)[C@H](CCN1CCC(N2CCCN(Cc3nn[nH]n3)C2=O)CC1)c1ccc(Cl)c(Cl)c1 [Example 6S]
11 | 0.4 | 0.4 | 0.7 | CN(C/C(=N\OC/C(N)=N/O)C(CCN1CCC(N2CCCN(C/C(N)=N/O)C2=O)CC1)c1ccc(Cl)c(Cl)c1)C(=O)c1cc(Cl)cc(Cl)c1 (stereo not shown) [Example 16]
